Measured values reported in patent US20240158385A1, “NOVEL COMPOUNDS” (Cerevance, Inc., priority 2021, published 2024).
Like-named read-outs stand apart in the source and are kept apart here.

Target: T1, human KCNK13 (Homo sapiens, UniProt Q9HB14)
T1 construct: expressed in transfected cells
T1 sequence (Q9HB14 1-408): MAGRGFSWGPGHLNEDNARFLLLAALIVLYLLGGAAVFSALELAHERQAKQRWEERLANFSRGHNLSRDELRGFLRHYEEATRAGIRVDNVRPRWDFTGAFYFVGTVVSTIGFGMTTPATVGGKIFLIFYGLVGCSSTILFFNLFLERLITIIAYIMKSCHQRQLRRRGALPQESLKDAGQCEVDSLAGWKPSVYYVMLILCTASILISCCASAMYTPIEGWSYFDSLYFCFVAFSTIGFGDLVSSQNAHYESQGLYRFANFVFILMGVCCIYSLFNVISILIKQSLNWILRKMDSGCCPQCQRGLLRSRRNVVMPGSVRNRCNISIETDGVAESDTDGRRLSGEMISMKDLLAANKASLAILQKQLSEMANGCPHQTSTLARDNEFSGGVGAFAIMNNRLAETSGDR
Test: KCNK13 antagonist activity, thallium (Tl+) flux FLIPR assay
Format: cell-based
Procedure, shortened: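 HEK 293 cells stably expressing human KCNK13 loaded with Tl+-sensitive dye for 1 h at room temperature. Compounds (10-point half-log curves) preincubated 15 min before thallium sulfate stimulus, fluorescence tracked by FLIPR. IC50 from ten-point curves, each point the mean of two wells.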

[1] = HEK 293 cells stably expressing human KCNK13, Tl+ sensitive dye, FLIPR, compounds 15 minutes prior to thallium sulfate, 10 point half log curves from 10 PM, read-out: hKCNK13 IC50

IC50 [1] [nM]	SMILES	IC50 [nM]
< 200	Nc1nonc1-c1nc2ccccc2n1Cc1ccnnc1 [Example 107, 4-[1-(pyridazin-4-ylmethyl)benzimidazol-2-yl]-1,2,5-oxadiazol-3-amine]	
< 500	Fc1nsnc1-c1nc2ccccc2n1Cc1cccnc1 [Example 108, 3-fluoro-4-[1-(pyridin-3-ylmethyl)benzimidazol-2-yl]-1,2,5-thiadiazole]	
< 500	Nc1nonc1-c1nc2ccccc2n1Cc1cccnc1C(F)(F)F [Example 109, 4-[1-[[2-(trifluoromethyl)pyridin-3-yl]methyl]benzimidazol-2-yl]-1,2,5-oxadiazol-3-amine]	
< 500	Cc1nonc1-c1nc2ccncc2n1Cc1cccnc1 [Example 110, 3-methyl-4-[3-(pyridin-3-ylmethyl)imidazo[4,5-c]pyridin-2-yl]-1,2,5-oxadiazole]	
< 500	Cc1onc(-c2nc3ccccc3n2Cc2cccnc2)c1C [Example 111, 4,5-dimethyl-3-[1-(pyridin-3-ylmethyl)benzimidazol-2-yl]isoxazole]	
< 500	Cc1nocc1-c1nc2ccccc2n1Cc1cccnc1 [Example 112, 3-methyl-4-[1-(pyridin-3-ylmethyl)benzimidazol-2-yl]isoxazole]	
< 500	Cc1cn(C)nc1-c1nc2ccccc2n1Cc1cccnc1 [Example 113, 2-(1,4-dimethylpyrazol-3-yl)-1-(pyridin-3-ylmethyl)benzimidazole]	
< 1000	Cn1nccc1-c1nc2ccccc2n1Cc1cccnc1 [Example 114, 2-(1-methylpyrazol-5-yl)-1-(pyridin-3-ylmethyl)benzimidazole]	
< 1000	Nc1nonc1-c1nc2ccccc2n1Cc1ccccn1 [Example 115, 4-[1-(pyridin-2-ylmethyl)benzimidazol-2-yl]-1,2,5-oxadiazol-3-amine]	
< 1000	CCc1nonc1-c1nc2ccccc2n1Cc1cccnc1 [Example 116, 3-ethyl-4-[1-(pyridin-3-ylmethyl)benzimidazol-2-yl]-1,2,5-oxadiazole]	
< 1000	c1coc(-c2nc3ccccc3n2Cc2ccncc2)c1 [Example 117, 2-(furan-2-yl)-1-(pyridin-4-ylmethyl)benzimidazole]	
< 100	Brc1nsnc1-c1nc2ccccc2n1Cc1cccnc1 [Example 126, 3-bromo-4-(1-(pyridin-3-ylmethyl)benzimidazol-2-yl)-1,2,5-thiadiazole]	
< 100	Cc1nsnc1-c1nc2ccccc2n1Cc1cccnc1 [Example 127, 3-methyl-4-[1-(pyridin-3-ylmethyl)benzimidazol-2-yl]-1,2,5-thiadiazole]	
< 100	Cc1cnoc1-c1nc2ccccc2n1Cc1cccnc1 [Example 130, 4-methyl-5-[1-(pyridin-3-ylmethyl)benzimidazol-2-yl]isoxazole]	
< 100	Nc1nonc1-c1nc2c(F)cccc2n1Cc1cncnc1 [Example 131, 4-[4-fluoro-1-(pyrimidin-5-ylmethyl)benzimidazol-2-yl]-1,2,5-oxadiazol-3-amine]	
< 100	Nc1nonc1-c1nc2cc(F)cc(F)c2n1Cc1ccncc1 [Example 136, 4-(5,7-difluoro-1-(pyridin-4-ylmethyl)-benzimidazol-2-yl)-1,2,5-oxadiazol-3-amine]	
< 100	Cc1nsnc1-c1nc2cccc(F)c2n1Cc1cccnn1 [Example 139, 3-(7-fluoro-1-(pyridazin-3-ylmethyl)-benzimidazol-2-yl)-4-methyl-1,2,5-thiadiazole]	
< 500	Cc1nsnc1-c1nc2c(F)cccc2n1Cc1cccnn1 [Example 140, 3-(4-fluoro-1-(pyridazin-3-ylmethyl)-benzimidazol-2-yl)-4-methyl-1,2,5-thiadiazole]	
< 100	Nc1nonc1-c1nc2cc(F)cc(F)c2n1Cc1cccnn1 [Example 141, 4-(5,7-difluoro-1-(pyridazin-3-ylmethyl)-benzimidazol-2-yl)-1,2,5-oxadiazol-3-amine]	
< 200	Nc1nonc1-c1nc2c(F)cc(F)cc2n1Cc1cccnn1 [Example 142, 4-(4,6-difluoro-1-(pyridazin-3-ylmethyl)-benzimidazol-2-yl)-1,2,5-oxadiazol-3-amine]	
< 200	CNc1nsnc1-c1nc2cccc(F)c2n1Cc1cccnn1 [Example 143, 4-(7-fluoro-1-(pyridazin-3-ylmethyl)-benzimidazol-2-yl)-N-methyl-1,2,5-thiadiazol-3-amine]	

IC50 [1] [nM]	SMILES	IC50 [nM]
< 1000	CNc1nsnc1-c1nc2c(F)cccc2n1Cc1cccnn1 [Example 144, 4-(4-fluoro-1-(pyridazin-3-ylmethyl)-benzimidazol-2-yl)-N-methyl-1,2,5-thiadiazol-3-amine]	
< 50	Nc1nonc1-c1nc2ccc(F)c(F)c2n1Cc1ccncc1 [Example 145, 4-(6,7-difluoro-1-(pyridin-4-ylmethyl)-benzimidazol-2-yl)-1,2,5-oxadiazol-3-amine]	
< 200	Nc1nonc1-c1nc2cccc(F)c2n1Cc1ccc(O)nn1 [Example 150, 6-((2-(4-amino-1,2,5-oxadiazol-3-yl)-7-fluoro-benzimidazol-1-yl)methyl)pyridazin-3-ol]	
< 50	Nc1nonc1-c1nc2c(F)ccc(F)c2n1Cc1cccnn1 [Example 154, 4-(4,7-difluoro-1-(pyridazin-3-ylmethyl)-benzimidazol-2-yl)-1,2,5-oxadiazol-3-amine]	
< 50	Nc1nonc1-c1nc2c(F)ccc(F)c2n1Cc1ccncc1 [Example 155, 4-(4,7-difluoro-1-(pyridin-4-ylmethyl)-benzimidazol-2-yl)-1,2,5-oxadiazol-3-amine]	
< 5000	Nc1nocc1-c1nc2cccc(F)c2n1Cc1cccnn1 [Example 158, 4-(7-fluoro-1-(pyridazin-3-ylmethyl)-benzimidazol-2-yl)isoxazol-3-amine]	
	Nc1nonc1-c1nc2ncc(F)cc2n1Cc1ccc(Cl)nc1 [Example 159, 4-(1-((6-chloropyridin-3-yl)methyl)-6-fluoro-1H-imidazo[4,5-b]pyridin-2-yl)-1,2,5-oxadiazol-3-amine]	< 50
< 500	Nc1nonc1-c1nc2ncc(F)cc2n1Cc1cncnc1 [Example 160, 4-(6-fluoro-1-(pyrimidin-5-ylmethyl)-1H-imidazo[4,5-b]pyridin-2-yl)-1,2,5-oxadiazol-3-amine]	
< 1000	C[C@@H](c1cccnc1)n1c(-c2nonc2N)nc2cccc(F)c21 [Example 161, (S)-4-(7-fluoro-1-(1-(pyridin-3-yl)ethyl)-benzimidazol-2-yl)-1,2,5-oxadiazol-3-amine]	
< 1000	CNS(=O)(=O)c1ccc(Cn2c(-c3nonc3C)nc3ccccc32)cn1 [Example 164, N-methyl-5-((2-(4-methyl-1,2,5-oxadiazol-3-yl)-benzimidazol-1-yl)methyl)pyridine-2-sulfonamide]	
< 100	Cc1nonc1-c1nc2cccnc2n1Cc1cnc(C#N)nc1 [Example 165, 5-((2-(4-methyl-1,2,5-oxadiazol-3-yl)-3H-imidazo[4,5-b]pyridin-3-yl)methyl)pyrimidine-2-carbonitrile]	
< 5000	Nc1nonc1-c1nc2cccc(F)c2n1Cc1ccc(OC(F)(F)F)nc1 [Example 176, 4-(7-fluoro-1-((6-(trifluoromethoxy)pyridin-3-yl)methyl)-benzimidazol-2-yl)-1,2,5-oxadiazol-3-amine]	
< 1000	N#Cc1ccc(Cn2c(-c3nonc3N)nc3cccnc32)nn1 [Example 177, 6-((2-(4-amino-1,2,5-oxadiazol-3-yl)-3H-imidazo[4,5-b]pyridin-3-yl)methyl)pyridazine-3-carbonitrile]	
< 5000	CNc1nonc1-c1nc2cccc(F)c2n1Cc1cccnn1 [Example 178, 4-(7-fluoro-1-(pyridazin-3-ylmethyl)-benzimidazol-2-yl)-N-methyl-1,2,5-oxadiazol-3-amine]	
< 200	Nc1nonc1-c1nc2c(F)cccc2n1Cc1cccnn1 [Example 179, 4-(4-fluoro-1-(pyridazin-3-ylmethyl)-benzimidazol-2-yl)-1,2,5-oxadiazol-3-amine]	
< 500	CCS(=O)(=O)c1ccc(Cn2c(-c3nonc3C)nc3ccccc32)cn1 [Example 180, 3-(1-((6-(ethylsulfonyl)pyridin-3-yl)methyl)-benzimidazol-2-yl)-4-methyl-1,2,5-oxadiazole]	
< 500	CSc1ccc(Cn2c(-c3nonc3C)nc3ccccc32)cn1 [Example 181, 3-methyl-4-(1-((6-(methylthio)pyridin-3-yl)methyl)-benzimidazol-2-yl)-1,2,5-oxadiazole]	
< 200	Cc1conc1-c1nc2cccc(F)c2n1Cc1cccnn1 [Example 182, 3-(7-fluoro-1-(pyridazin-3-ylmethyl)-benzimidazol-2-yl)-4-methylisoxazole]	
< 50	Cc1nonc1-c1nc2c(F)ccc(F)c2n1Cc1cccnn1 [Example 185, 3-(4,7-difluoro-1-(pyridazin-3-ylmethyl)-benzimidazol-2-yl)-4-methyl-1,2,5-oxadiazole]	
< 500	Nc1conc1-c1nc2cccc(F)c2n1Cc1cccnn1 [Example 186, 3-(7-fluoro-1-(pyridazin-3-ylmethyl)-benzimidazol-2-yl)isoxazol-4-amine]	
